From US8895547B2, “Substituted phenyl-oxathiazine derivatives, method for producing them, drugs containing said compounds and the use thereof” (Sanofi, priority 2011, dated 2014)

molecular target: T1, human 11β-HSD1 (Homo sapiens, UniProt P28845); test: Enzymatic 11beta-HSD1 test (SPA-based detection); type: biochemical; conditions: human 11β-HSD1 microsome fraction, [1,2-3H]-cortisone, NADPH, 37° C. 1 hour
T1 construct: host or cells: microsome fraction
Experimental: Enzymatic 11beta-HSD1 test:
To measure the activity of the compounds, an SPA-based detection method (Solly et al. 2005) was employed. First of all, 20 μl of the human 11β-HSD1 microsome fraction (0.2 μg of protein), prepared in 50 mM HEPES, 0.1% BSA (w/v), were applied to a plate with 384 wells. The test compounds (0.09 μl) were applied to the assay plate in 100% DMSO. The reaction was started by addition of 20 μl of [1,2-^3H]-cortisone (0.1 μCi/[…]) in assay buffer comprising 25 mM HEPES, 100 mM KCl, 5 mM NaCl, 2 mM MgCl2 and 0.25 mM NADPH. The plate was agitated at 37° C. for 1 hour. At the same time, a stop solution comprising 20 mg/ml SPA-PVT beads, 1.6 mg/ml monoclonal cortisol antibody and 0.01 mM SSR110887 (inhibitor from the Biovitrium patent) in 50 mM HEPES, 1 M NaCl and 1 M KCl was stirred at room temperature. To stop the reaction, 25 μl of the stop solution were added to each well. The plate was agitated gently at room temperature for 1 further hour and then centrifuged at 500 gav for 1 minute, in order that the SPA beads could settle out. The plate was then read in a Wallac-1450-Microbeta unit with a standard SPA program (counting time 1 min/well). The comparative compound was glycyrrhetinic acid.
Protein and radioactive substrate were dispensed with a Biomek FX unit (Beckman Coulter) for handling liquids. The test compounds were added with a Cybi-Well equipped with a 90 nl pin tool (CyBio).
Lit.: Solly S, Mundt S S, Zokian H J, Juy-Fang Ding G, Hermanowski-Vosatka A, Strulovici B and Zheng W. High-throughput screening of 11β-Hydroxysteroid dehydrogenase type 1 in scintillation proximity format. Assay Drug Dev Technol 2005; 3:377-384.

T1 sequence (P28845 whole entry): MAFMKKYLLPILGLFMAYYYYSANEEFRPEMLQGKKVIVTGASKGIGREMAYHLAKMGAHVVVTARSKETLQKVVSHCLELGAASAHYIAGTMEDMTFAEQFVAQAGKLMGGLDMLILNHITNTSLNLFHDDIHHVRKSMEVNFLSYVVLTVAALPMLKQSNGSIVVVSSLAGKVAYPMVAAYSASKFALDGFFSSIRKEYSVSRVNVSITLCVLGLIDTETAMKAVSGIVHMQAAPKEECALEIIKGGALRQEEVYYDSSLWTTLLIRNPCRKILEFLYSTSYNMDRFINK

SMILES	IC50 [µM]
CC(C)(C)c1ccc(C2(C)C(C)(C)OC(N[C@@H](CCO)c3ccccc3)=NS2(=O)=O)cc1 (stereo partly drawn) [Compound 62, (S)-3-[5-(4-tert-Butylphenyl)-5,6,6-trimethyl-4,4-dioxo-5,6-dihydro-4H-4lambda6-[1,4,3]oxathiazin-2-ylamino]-3-phenylpropan-1-ol]	0.047
C[C@H](NC1=NS(=O)(=O)C(C)(c2ccc(C(C)(C)C)cc2)C(C)(C)O1)c1ccccc1F (stereo partly drawn) [Compound 63, [5-(4-tert-Butylphenyl)-5,6,6-trimethyl-4,4-dioxo-5,6-dihydro-4H-4lambda6-[1,4,3]oxathiazin-2-yl]-[(S)-1-(2-fluorophenyl)ethyl]amine]	0.032
CC1(C)OC(NC2CCCCC2)=NS(=O)(=O)C1c1ccccc1 (centres unmarked) [Example 1, Cyclohexyl-(6,6-dimethyl-4,4-dioxo-5-phenyl-5,6-dihydro-4H-4lambda6-[1,4,3]oxathiazin-2-yl)-amine]	0.113
CC1(C)OC(N[C@@H](CCO)c2ccccc2)=NS(=O)(=O)C1c1ccccc1 (stereo partly drawn) [Example 2, (S)-3-(6,6-Dimethyl-4,4-dioxo-5-phenyl-5,6-dihydro-4H-4lambda6-[1,4,3]oxathiazin-2-ylamino)-3-phenyl-propan-1-ol]	0.017
CC1(C)OC(NC2CCCCC2)=NS(=O)(=O)C1c1ccc(-c2ccccc2)cc1 (centres unmarked) [Example 3, (5-Biphenyl-4-yl-6,6-dimethyl-4,4-dioxo-5,6-dihydro-4H-4lambda6-[1,4,3]oxathiazin-2-yl)-cyclohexyl-amine]	1.27
CC1(C)OC(N[C@@H](CCO)c2ccccc2)=NS(=O)(=O)C1c1ccc(OCc2ccccc2)cc1 (stereo partly drawn) [Example 4, (S)-3-[5-(4-Benzyloxy-phenyl)-6,6-dimethyl-4,4-dioxo-5,6-dihydro-4H-4lambda6-[1,4,3]oxathiazin-2-ylamino]-3-phenyl-propan-1-ol]	0.014
CC1(C)OC(N[C@@H](CCO)c2ccccc2)=NS(=O)(=O)C1c1ccc(O)cc1 (stereo partly drawn) [Example 5, 4-[2-((S)-3-Hydroxy-1-phenyl-propylamino)-6,6-dimethyl-4,4-dioxo-5,6-dihydro-4H-4lambda6-[1,4,3]oxathiazin-5-yl]-phenol]	1.67
COc1ccc(C2C(C)(C)OC(N[C@@H](CCO)c3ccccc3)=NS2(=O)=O)cc1 (stereo partly drawn) [Example 6, (S)-3-[5-(4-Methoxy-phenyl)-6,6-dimethyl-4,4-dioxo-5,6-dihydro-4H-4lambda6-[1,4,3]oxathiazin-2-ylamino]-3-phenyl-propan-1-ol]	0.029
CC1(C)OC(N[C@@H](CCO)c2ccccc2)=NS(=O)(=O)C1c1cccc(Br)c1 (stereo partly drawn) [Example 7, (S)-3-[5-(3-Bromophenyl)-6,6-dimethyl-4,4-dioxo-5,6-dihydro-4H-4lambda6-[1,4,3]oxathiazin-2-ylamino]-3-phenyl-propan-1-ol]	0.02
CC1(C)OC(N[C@@H](CCO)c2ccccc2)=NS(=O)(=O)C1c1cccc(-c2ccccc2)c1 (stereo partly drawn) [Example 8, (S)-3-(5-Biphenyl-3-yl-6,6-dimethyl-4,4-dioxo-5,6-dihydro-4H-4lambda6-[1,4,3]oxathiazin-2-ylamino)-3-phenyl-propan-1-ol]	0.022
Cc1cccc(C2C(C)(C)OC(N[C@@H](CCO)c3ccccc3)=NS2(=O)=O)c1 (stereo partly drawn) [Example 9, (S)-3-(6,6-Dimethyl-4,4-dioxo-5-m-tolyl-5,6-dihydro-4H-4lambda6-[1,4,3]oxathiazin-2-ylamino)-3-phenyl-propan-1-ol]	0.022
CC1(C)OC(N[C@@H](CCO)c2ccccc2)=NS(=O)(=O)C1c1cccc(Cc2ccccc2)c1 (stereo partly drawn) [Example 10, (S)-3-[5-(3-Benzyl-phenyl)-6,6-dimethyl-4,4-dioxo-5,6-dihydro-4H-4lambda6-[1,4,3]oxathiazin-2-ylamino]-3-phenyl-propan-1-ol]	0.015
Cc1ccc(C2C(C)(C)OC(N[C@@H](CCO)c3ccccc3)=NS2(=O)=O)cc1 (stereo partly drawn) [Example 11, (S)-3-(6,6-Dimethyl-4,4-dioxo-5-p-tolyl-5,6-dihydro-4H-4lambda6-[1,4,3]oxathiazin-2-ylamino)-3-phenyl-propan-1-ol]	0.009
CC1(C)OC(N[C@@H](CCO)c2ccccc2)=NS(=O)(=O)C1c1ccc(-c2ccccc2)cc1 (stereo partly drawn) [Example 12, (S)-3-(5-Biphenyl-4-yl-6,6-dimethyl-4,4-dioxo-5,6-dihydro-4H-4lambda6-[1,4,3]oxathiazin-2-ylamino)-3-phenyl-propan-1-ol]	0.045
CC1(C)OC(NC2CCCCC2)=NS(=O)(=O)C1c1cccc(Br)c1 (centres unmarked) [Example 13, [5-(3-Bromophenyl)-6,6-dimethyl-4,4-dioxo-5,6-dihydro-4H-4lambda6-[1,4,3]oxathiazin-2-yl]-cyclohexyl-amine]	0.047
CC1(C)OC(N[C@@H](CCO)c2ccccc2)=NS(=O)(=O)C1c1cccc(-c2cncnc2)c1 (stereo partly drawn) [Example 14, (S)-3-[6,6-Dimethyl-4,4-dioxo-5-(3-pyrimidin-5-yl-phenyl)-5,6-dihydro-4H-4lambda6-[1,4,3]oxathiazin-2-ylamino]-3-phenyl-propan-1-ol]	0.032
CC1(C)OC(N[C@@H](CCO)c2ccccc2)=NS(=O)(=O)C1c1ccccc1Cl (stereo partly drawn) [Example 15, (S)-3-[5-(2-Chlorophenyl)-6,6-dimethyl-4,4-dioxo-5,6-dihydro-4H-4lambda6-[1,4,3]oxathiazin-2-ylamino]-3-phenyl-propan-1-ol]	0.011
Cc1ccccc1C1C(C)(C)OC(N[C@@H](CCO)c2ccccc2)=NS1(=O)=O (stereo partly drawn) [Example 16, (S)-3-(6,6-Dimethyl-4,4-dioxo-5-o-tolyl-5,6-dihydro-4H-4lambda6-[1,4,3]oxathiazin-2-ylamino)-3-phenyl-propan-1-ol]	0.011
CC1(C)OC(NC2CCCCC2)=NS(=O)(=O)C1(C)c1ccccc1 (centres unmarked) [Example 18, Cyclohexyl-(5,6,6-trimethyl-4,4-dioxo-5-phenyl-5,6-dihydro-4H-4lambda6-[1,4,3]oxathiazin-2-yl)-amine]	0.036
CC1(C)OC(NC2CCCCC2)=NS(=O)(=O)C1c1cccc(OCc2ccccc2)c1 (centres unmarked) [Example 19, [5-(3-Benzyloxy-phenyl)-6,6-dimethyl-4,4-dioxo-5,6-dihydro-4H-4lambda6-[1,4,3]oxathiazin-2-yl]-cyclohexyl-amine]	0.352
CC1(C)OC(N[C@@H](CCO)c2ccccc2)=NS(=O)(=O)C1c1cccc(Cl)c1 (stereo partly drawn) [Example 20, (S)-3-[5-(3-Chloro-phenyl)-6,6-dimethyl-4,4-dioxo-5,6-dihydro-4H-4lambda6-[1,4,3]oxathiazin-2-ylamino]-3-phenyl-propan-1-ol]	0.021
CC1(C)OC(NC2CCCCC2)=NS(=O)(=O)C1c1cccc(O)c1 (centres unmarked) [Example 22, 3-(2-Cyclohexylamino-6,6-dimethyl-4,4-dioxo-5,6-dihydro-4H-4lambda6-[1,4,3]oxathiazin-5-yl)-phenol]	0.163
COc1cccc(C2C(C)(C)OC(NC3CCCCC3)=NS2(=O)=O)c1 (centres unmarked) [Example 23, Cyclohexyl-[5-(3-methoxy-phenyl)-6,6-dimethyl-4,4-dioxo-5,6-dihydro-4H-4lambda6-[1,4,3]oxathiazin-2-yl]-amine]	0.114
CC1(C)OC(N[C@@H](CCO)c2ccccc2)=NS(=O)(=O)C1c1cccc(OCc2ccccc2)c1 (stereo partly drawn) [Example 24, (S)-3-[5-(3-Benzyloxy-phenyl)-6,6-dimethyl-4,4-dioxo-5,6-dihydro-4H-4lambda6-[1,4,3]oxathiazin-2-ylamino]-3-phenyl-propan-1-ol]	0.021
C[C@H](NC1=NS(=O)(=O)C(c2cccc(Br)c2)C(C)(C)O1)c1ccccc1F (stereo partly drawn) [Example 27, [5-(3-Bromophenyl)-6,6-dimethyl-4,4-dioxo-5,6-dihydro-4H-4lambda6-[1,4,3]oxathiazin-2-yl]-[(S)-1-(2-fluorophenyl)-ethyl]-amine]	0.013
C[C@H](NC1=NS(=O)(=O)C(C)(c2cccc(Br)c2)C(C)(C)O1)c1ccccc1F (stereo partly drawn) [Example 30, [5-(3-Bromophenyl)-5,6,6-trimethyl-4,4-dioxo-5,6-dihydro-4H-4lambda6-[1,4,3]oxathiazin-2-yl]-[(S)-1-(2-fluorophenyl)-ethyl]-amine]	0.007
C[C@H](NC1=NS(=O)(=O)C(c2ccccc2)C(C)(C)O1)c1ccccc1F (stereo partly drawn) [Example 31, (6,6-Dimethyl-4,4-dioxo-5-phenyl-5,6-dihydro-4H-4lambda6-[1,4,3]oxathiazin-2-yl)-[(S)-1-(2-fluoro-phenyl)-ethyl]-amine]	0.01
CC1(C)OC(N[C@@H](CCO)c2ccccc2)=NS(=O)(=O)C1c1cccc(O)c1 (stereo partly drawn) [Example 32, 3-[2-((S)-3-Hydroxy-1-phenyl-propylamino)-6,6-dimethyl-4,4-dioxo-5,6-dihydro-4H-4lambda6-[1,4,3]oxathiazin-5-yl]-phenol]	0.024
CC1(C)OC(N[C@@H](CCO)c2ccccc2)=NS(=O)(=O)C1(C)c1cccc(Br)c1 (stereo partly drawn) [Example 33, (S)-3-[5-(3-Bromophenyl)-5,6,6-trimethyl-4,4-dioxo-5,6-dihydro-4H-4lambda6-[1,4,3]oxathiazin-2-ylamino]-3-phenyl-propan-1-ol]	0.008
